The record followed here is ChEMBL document CHEMBL6177967, “Semisynthesis and biological evaluation of 17-hydroxybrevianamide N derivatives as anti-inflammatory agents by mediating NF-κB and MAPK signaling pathways” (Eur J Med Chem, 2025).

Structures are written as SMILES. The source made the active and inactive calls. No cut-off for these calls is given here.

Data set [1] relates to RAW264.7. Briefly: Cytotoxicity against mouse RAW264.7 cells assessed as inhibition of cell growth at 50 uM incubated for 24 hrs by MTT assay. The format is toxicity, cell-based. As to conditions: raw264.7, 24 h. Background: Tetrazolium assays rely on reduction of a dye to a coloured formazan, in cell work by metabolically active cells.
Data set [2] relates to RAW264.7. Briefly: Cytotoxicity against mouse RAW264.7 cells assessed as inhibition of cell growth at 10 uM incubated for 24 hrs by MTT assay. The format is toxicity, cell-based. As to conditions: raw264.7, 24 h.
The subject of data set [3] is RAW264.7. Briefly: Cytotoxicity against mouse RAW264.7 cells assessed as inhibition of cell growth at 2 uM incubated for 24 hrs by MTT assay. The format is toxicity, cell-based. The conditions noted are these: raw264.7, 24 h.
Data set [4] deals with RAW264.7. Kind of data set: Anti-inflammatory activity in LPS-induced mouse RAW264.7 cells assessed as inhibition of NO levels incubated for 24 hrs. In kind it is functional, cell-based. As to conditions: RAW264.7, 24 h.
Data set [5] has as its system RAW264.7. Briefly: Anti-inflammatory activity in LPS-induced mouse RAW264.7 cells assessed as inhibition of TNF-alpha level at 2 uM incubated for 24 hrs by ELISA relative to control. In kind it is functional.
In data set [6] the test system is RAW264.7. Kind of data set: Anti-inflammatory activity in LPS-induced mouse RAW264.7 cells assessed as inhibition of IL-6 level at 2 uM incubated for 24 hrs by ELISA relative to control. In kind it is functional. Background: In an ELISA, binding on a coated surface is turned into a signal by an enzyme label.
Data set [7] concerns RAW264.7. Kind of data set: Anti-inflammatory activity in LPS-induced mouse RAW264.7 cells assessed as inhibition of IL-1beta level at 2 uM incubated for 24 hrs by ELISA relative to control. The format is functional.
Data set [8] relates to RAW264.7. Briefly: Anti-inflammatory activity in LPS-induced mouse RAW264.7 cells assessed as inhibition of NO levels at 2 uM incubated for 24 hrs. In kind it is functional, cell-based.

Regarding `COCOc1ccccc1CC1C(=O)N(Cc2cccc(C(F)(F)F)c2)C(=O)c2nc3ccccc3c(=O)n21` (racemic), the Activity entry is given as “Toxic” in the data set with RAW264.7 [1] and “Non-toxic” in the data set on RAW264.7 [2].

Broadly, the IC50 is the point on the concentration scale where inhibition reaches its midpoint. Broadly, the inhibition is how much of the control response was suppressed. On to `CN1C(=O)c2nc3ccccc3c(=O)n2[C@H](Cc2ccccc2OCC#N)C1=O`, for which the Activity result in the data set on RAW264.7 [3] is listed as “Non-toxic”. The concentration for half-maximal inhibition (IC50) with RAW264.7 [4] is greater than 8 µM. Further, the inhibition entry in the data set with RAW264.7 [5] was “inactive”. The inhibition at 2 µM in the data set on RAW264.7 [6] was determined as 31.9%; in the data set with RAW264.7 [7], 63.1%.

As to `Cc1ccc(CN2C(=O)c3nc4ccccc4c(=O)n3C(Cc3ccccc3O)C2=O)cc1` (racemic), the Activity result with RAW264.7 [1] and in the data set with RAW264.7 [2] was “Non-toxic” throughout.

In the case of `COCC(=O)Oc1ccccc1CC1C(=O)N(C)C(=O)c2nc3ccccc3c(=O)n21` (racemic), the Activity entry in the data set with RAW264.7 [2] is given as “Non-toxic”.

In the case of `O=C1c2nc3ccccc3c(=O)n2[C@@H](Cc2ccccc2O)C(=O)N1Cc1cccc(Br)c1`, in the data set with RAW264.7 [3], the Activity entry is listed as “Non-toxic”. Also, in the data set with RAW264.7 [4], the IC50 is greater than 8 µM. Besides, the inhibition result in the data set on RAW264.7 [5], with RAW264.7 [6] and with RAW264.7 [7] was “inactive” each time.

Turning to `CN1C(=O)c2nc3ccccc3c(=O)n2C(Cc2ccccc2O)C1=O` (racemic), the Activity entry in the data set with RAW264.7 [2] was “Non-toxic”.

Take `CN1C(=O)c2nc3ccccc3c(=O)n2C(Cc2ccccc2OCc2ccc(Cl)cc2)C1=O` (racemic): in the data set with RAW264.7 [2], the Activity entry was “Non-toxic”. Besides, the result with RAW264.7 [8] was Active.

In the case of `O=C1c2nc3ccccc3c(=O)n2[C@@H](Cc2ccccc2O)C(=O)N1Cc1ccccc1Cl`, the Activity result with RAW264.7 [3] is listed as “Non-toxic”. Also, the half-maximal inhibitory concentration (IC50) in the data set with RAW264.7 [4] is 1.78 µM. For the same molecule, the inhibition entry in the data set on RAW264.7 [5] and with RAW264.7 [7] was “inactive” in each case. The inhibition at 2 µM in the data set with RAW264.7 [6] turned out to be 19.3%.

Take `O=C1c2nc3ccccc3c(=O)n2C(Cc2ccccc2O)C(=O)N1Cc1cccc(F)c1` (racemic): the Activity result in the data set on RAW264.7 [2] was “Non-toxic”; in the data set on RAW264.7 [8], “Active; Strong Ability Of No Inhibition Observed”.

As to `C=CCOc1ccccc1C[C@@H]1C(=O)N(C)C(=O)c2nc3ccccc3c(=O)n21`, the Activity result with RAW264.7 [3] is “Non-toxic”. Moreover, the half-inhibitory concentration (IC50) in the data set with RAW264.7 [4] was determined as 1.68 µM. The inhibition result in the data set on RAW264.7 [5] is “inactive”. The inhibition at 2 µM in the data set on RAW264.7 [6] was determined as 36.5%; with RAW264.7 [7], 42.9%.

`CN1C(=O)c2nc3ccccc3c(=O)n2C(Cc2ccccc2OC(=O)COCc2ccccc2)C1=O` (racemic): the Activity entry in the data set with RAW264.7 [2] is “Non-toxic”.

Consider `CN1C(=O)c2nc3ccccc3c(=O)n2C(Cc2ccccc2OC(=O)c2cccs2)C1=O` (racemic), for which the Activity result in the data set on RAW264.7 [2] is recorded as “Non-toxic”.

`CC(=O)Oc1ccccc1CC1C(=O)N(C)C(=O)c2nc3ccccc3c(=O)n21` (racemic): the Activity entry with RAW264.7 [2] was “Non-toxic”.

Regarding `O=C1c2nc3ccccc3c(=O)n2[C@H](Cc2ccccc2O)C(=O)N1Cc1cccc(F)c1`, the Activity entry in the data set on RAW264.7 [3] is “Non-toxic”. Moreover, the half-maximal inhibitory concentration (IC50) in the data set with RAW264.7 [4] came out at 2.25 µM. For the same molecule, in the data set with RAW264.7 [5], the inhibition entry is “inactive”. For the same molecule, the inhibition at 2 µM in the data set with RAW264.7 [6] came to 22.9%; with RAW264.7 [7], 44%.

In the case of `COCOc1ccccc1CC1C(=O)N(Cc2cccc(C)c2)C(=O)c2nc3ccccc3c(=O)n21` (racemic), the Activity result in the data set on RAW264.7 [2] was “Non-toxic”.

For the molecule `COc1ccccc1CC1C(=O)N(C)C(=O)c2nc3ccccc3c(=O)n21` (racemic), the Activity entry with RAW264.7 [2] is recorded as “Non-toxic”.

For the molecule `O=C1c2nc3ccccc3c(=O)n2[C@@H](Cc2ccccc2O)C(=O)N1Cc1cccc(F)c1`, the Activity entry with RAW264.7 [3] is “Non-toxic”. Further, in the data set with RAW264.7 [4], the IC50 stood at 3.07 µM. Further, in the data set on RAW264.7 [5], the inhibition result is “inactive”. Further, the inhibition at 2 µM was determined as 21.3% with RAW264.7 [6] and 60.7% in the data set with RAW264.7 [7].

Regarding `O=C1c2nc3ccccc3c(=O)n2[C@H](Cc2ccccc2O)C(=O)N1Cc1cccc(Br)c1`, in the data set on RAW264.7 [3], the Activity result is “Non-toxic”. Further, the half-inhibitory concentration (IC50) in the data set on RAW264.7 [4] was determined as 1.37 µM. Moreover, the inhibition result in the data set with RAW264.7 [5] was “inactive”. Also, the inhibition at 2 µM with RAW264.7 [6] turned out to be 19.2%; with RAW264.7 [7], 45.2%.

As for `CN1C(=O)c2nc3ccccc3c(=O)n2[C@@H](Cc2ccccc2OCc2ccccc2Cl)C1=O`, the Activity result in the data set on RAW264.7 [3] is “Non-toxic”. Also, in the data set on RAW264.7 [4], the half-maximal inhibitory concentration (IC50) turned out to be 1.53 µM. Also, the inhibition result in the data set with RAW264.7 [5] was “inactive”. The inhibition at 2 µM in the data set on RAW264.7 [6] came out at 21.4%; in the data set with RAW264.7 [7] it was 82.1%.

Turning to `COCOc1ccccc1CC1C(=O)NC(=O)c2nc3ccccc3c(=O)n21` (racemic), the Activity result in the data set with RAW264.7 [2] is recorded as “Non-toxic”.

For the molecule `CN1C(=O)c2nc3ccccc3c(=O)n2C(Cc2ccccc2OCc2cccc(C(F)(F)F)c2)C1=O` (racemic), in the data set on RAW264.7 [2], the Activity entry is “Non-toxic”.

With `COc1ccccc1CC1C(=O)N(Cc2cccc(F)c2)C(=O)c2nc3ccccc3c(=O)n21` (racemic), in the data set with RAW264.7 [2], the Activity entry is recorded as “Non-toxic”.

Turning to `Cc1cccc(CN2C(=O)c3nc4ccccc4c(=O)n3C(Cc3ccccc3O)C2=O)c1` (racemic), in the data set with RAW264.7 [2], the Activity entry is “Non-toxic”. Besides, the result with RAW264.7 [8] was Active.

Take `Cc1ccc(COc2ccccc2CC2C(=O)N(C)C(=O)c3nc4ccccc4c(=O)n32)cc1` (racemic): the Activity result in the data set with RAW264.7 [2] is recorded as “Non-toxic”.

Take `CN1C(=O)c2nc3ccccc3c(=O)n2C(Cc2ccccc2OC(=O)c2ccco2)C1=O` (racemic): the Activity entry with RAW264.7 [2] is recorded as “Non-toxic”.

With `O=C1c2nc3ccccc3c(=O)n2C(Cc2ccccc2O)C(=O)N1Cc1cccc(Br)c1` (racemic), the Activity entry is listed as “Non-toxic” with RAW264.7 [2] and “Active; Strong Ability Of No Inhibition Observed” in the data set with RAW264.7 [8].

For `CN1C(=O)c2nc3ccccc3c(=O)n2[C@H](Cc2ccccc2OCc2ccccc2Cl)C1=O`, the Activity result in the data set with RAW264.7 [3] is “Non-toxic”. In addition, the IC50 in the data set on RAW264.7 [4] is greater than 8 µM. In addition, the inhibition result in the data set with RAW264.7 [5], in the data set with RAW264.7 [6] and with RAW264.7 [7] was “inactive” each time.

For the molecule `CN1C(=O)c2nc3ccccc3c(=O)n2C(Cc2ccccc2OCc2ccccc2Cl)C1=O` (racemic), the Activity entry is listed as “Non-toxic” with RAW264.7 [2] and “Active; Strong Ability Of No Inhibition Observed” in the data set with RAW264.7 [8].

As for `COc1ccc(C2(O)c3nc4ccccc4c(=O)n3C(Cc3ccccc3O)C(=O)N2C)cc1` (racemic), the Activity entry in the data set with RAW264.7 [2] was “Non-toxic”.

For `COc1ccccc1CC1C(=O)N(Cc2cccc(C)c2)C(=O)c2nc3ccccc3c(=O)n21` (racemic), the Activity entry with RAW264.7 [2] is listed as “Non-toxic”.

Regarding `CCOC(=O)COc1ccccc1CC1C(=O)N(C)C(=O)c2nc3ccccc3c(=O)n21` (racemic), the Activity result with RAW264.7 [2] is “Non-toxic”.

Regarding `O=C1c2nc3ccccc3c(=O)n2[C@H](Cc2ccccc2O)C(=O)N1Cc1ccccc1Cl`, the Activity result with RAW264.7 [3] is on record as “Non-toxic”. Further, the IC50 with RAW264.7 [4] is 1.19 µM. Besides, in the data set with RAW264.7 [5], the inhibition result was “inactive”. For the same molecule, the inhibition at 2 µM in the data set with RAW264.7 [6] was 28.8%; with RAW264.7 [7], 35.7%.

For `CN1C(=O)c2nc3ccccc3c(=O)n2[C@@H](Cc2ccccc2OCC#N)C1=O`, the Activity entry in the data set on RAW264.7 [3] is “Non-toxic”. For the same molecule, the IC50 in the data set with RAW264.7 [4] is 1.61 µM. In the data set with RAW264.7 [5], the inhibition result was “inactive”. Moreover, the inhibition at 2 µM in the data set on RAW264.7 [6] was found to be 31.6%; in the data set on RAW264.7 [7], 48.8%.

As for `O=C1c2nc3ccccc3c(=O)n2C(Cc2ccccc2O)C(=O)N1Cc1cccc(C(F)(F)F)c1` (racemic), in the data set on RAW264.7 [2], the Activity result was “Non-toxic”.

As to `O=C1NC(=O)C(Cc2ccccc2O)n2c1nc1ccccc1c2=O` (racemic), the Activity result with RAW264.7 [2] is given as “Non-toxic”. Further, the inhibition result with RAW264.7 [5] was “inactive”. In addition, the values for the inhibition at 2 µM in the data set with RAW264.7 [6] and in the data set with RAW264.7 [7] were 28.8% and 33.3%, respectively.
